{"source": "patent US20250064947A1", "about": "“CYTOTOXICITY TARGETING CHIMERAS FOR FIBROBLAST ACTIVATION PROTEIN-EXPRESSING CELLS” (Glaxosmithkline Intellectual Property Development Limited, priority 2022, published 2025)"}
{"target": "T1, FAP (Homo sapiens, UniProt Q12884)", "T1 construct": "Target cells: WI-38 cells (typically 1000-20,000 cells per well); endogenous in cells; host or cells: WI-38 cells", "T1 sequence (Q12884 1-760)": "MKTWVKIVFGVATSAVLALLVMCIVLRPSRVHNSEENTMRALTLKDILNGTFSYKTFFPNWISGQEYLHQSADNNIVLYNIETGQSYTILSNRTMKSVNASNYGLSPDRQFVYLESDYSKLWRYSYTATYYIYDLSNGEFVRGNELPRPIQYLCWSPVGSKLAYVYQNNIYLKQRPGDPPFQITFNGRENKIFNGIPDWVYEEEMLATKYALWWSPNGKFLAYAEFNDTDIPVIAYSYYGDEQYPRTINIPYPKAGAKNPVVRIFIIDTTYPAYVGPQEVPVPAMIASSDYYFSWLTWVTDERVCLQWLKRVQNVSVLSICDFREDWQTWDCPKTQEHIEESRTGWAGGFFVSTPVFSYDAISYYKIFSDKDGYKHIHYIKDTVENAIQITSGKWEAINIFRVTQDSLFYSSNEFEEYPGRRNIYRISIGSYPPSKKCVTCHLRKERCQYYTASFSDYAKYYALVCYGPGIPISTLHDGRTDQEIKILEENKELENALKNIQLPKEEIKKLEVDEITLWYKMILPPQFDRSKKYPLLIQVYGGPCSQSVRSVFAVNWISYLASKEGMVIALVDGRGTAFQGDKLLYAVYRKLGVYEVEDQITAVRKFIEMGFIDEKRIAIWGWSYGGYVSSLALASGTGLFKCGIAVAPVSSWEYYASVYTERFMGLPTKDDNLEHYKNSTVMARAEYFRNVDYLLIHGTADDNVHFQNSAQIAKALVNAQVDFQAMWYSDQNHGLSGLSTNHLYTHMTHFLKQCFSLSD", "experiment": "Antibody dependent cellular cytotoxicity (ADCC) reporter assay", "type": "cell-based", "design": "key to ADCC Reporter Assay pEC50: Inactive = pEC50 < 5", "details": "WI-38 target cells; Jurkat FcγRIIIa NFAT-luciferase reporter cells; with anti-cotinine antibody (SEQ ID NO: 11/12); 12-18 hours; average if more than one run", "description": "(§1) An antibody dependent cellular cytotoxicity (ADCC) reporter assay was conducted using the following four assay components: (i) ARM compound of Formula (I) targeting FAP (concentrations ranging from […]); (ii) anti-cotinine antibody having a heavy chain sequence of SEQ ID NO: 11 and a light chain sequence of SEQ ID NO: 12 (rabbit variable region with human IgG1 Fc domain containing DE mutation (S239D/I332E)) (concentrations ranging from 0.01 μg/mL 200 μg/mL); (iii) Target cells: WI-38 cells (typically 1000-20,000 cells per well); and (iv) Reporter cells—Jurkat cells engineered to express FcγRIIIa with a reporter gene luciferase under the control of the NFAT promoter (typically 3000-75,000 cells per well). Reagents were combined in final volume of 20 μL in 384—well tissue culture treated plate. All four assay components were incubated together for about 12-18 hours. Thereafter, BioGlo Detection reagent (Promega) was added to the wells to lyse the cells and provide a substrate for the luciferase reporter protein.\n(§2) Luminescence signal was measured on a microplate reader capable of measuring luminescence and signal:background was calculated by dividing the signal of a test well by the signal obtained when no compound of formula (I) was included in the assay. EC50 calculations were done using Graphpad Prism Software, specifically a nonlinear regression curve fit (Y=Bottom+(Top−Bottom)/(1+10^((Log EC50−X)*HillSlope))).\n(§3) ARMs compounds of Formula (I) were tested for ADCC activity in the above assay in one or more experimental runs and the results are shown in Table 3 below. Potency of the compounds of Formula (I) is reported as a pEC50 values. The pEC50 value is the negative log of the EC50 value, wherein the EC50 value is half maximal effective concentration measured in molar (M). For compounds tested in more than one experimental run, the pEC50 value is reported as an average."}
{"smiles": "CN(CCNC(=O)CCOCCOCCOCCOCCOCCOCCOCCOCCOCCOCCOCCOCCNC(=O)[C@H]1CC(=O)N(C)[C@@H]1c1cccnc1)c1ccc2nccc(C(=O)NCC(=O)N3CC(F)(F)C[C@H]3C#N)c2c1", "note": "[Example 5, N-(2-((S)-2-cyano-4,4-difluoropyrrolidin-1-yl)-2-oxoethyl)-6-(methyl(1-((2S,3S)-1-methyl-5-oxo-2-(pyridin-3-yl)pyrrolidin-3-yl)-1,41-dioxo-5,8,11,14,17,20,23,26,29,32,35,38-dodecaoxa-2,42-diazatetratetracontan-44-yl)amino)quinoline-4-carboxamide]", "ADCC Reporter Assay pEC50": "Inactive"}
{"smiles": "CN(CCNC(=O)[C@H]1CC[C@H](NC(=O)CCCO[C@H]2CC[C@H](OCCNC(=O)[C@H]3CC(=O)N(C)[C@@H]3c3cccnc3)CC2)CC1)c1ccc2nccc(C(=O)NCC(=O)N3CC(F)(F)C[C@H]3C#N)c2c1", "note": "[Example 4, N-(2-((S)-2-cyano-4,4-difluoropyrrolidin-1-yl)-2-oxoethyl)-6-(methyl(2-((1R,4r)-4-(4-(((1S,4R)-4-(2-((2S,3S)-1-methyl-5-oxo-2-(pyridin-3-yl)pyrrolidine-3-carboxamido)ethoxy)cyclohexyl)oxy)butanamido)cyclohexane-1-carboxamido)ethyl)amino)quinoline-4-carboxamide]", "ADCC Reporter Assay pEC50": "Inactive"}
{"smiles": "CN(CCNC(=O)CCCO[C@H]1CC[C@H](OCCNC(=O)[C@H]2CC[C@H](NC(=O)CCCO[C@H]3CC[C@H](OCCNC(=O)[C@H]4CC(=O)N(C)[C@@H]4c4cccnc4)CC3)CC2)CC1)c1ccc2nccc(C(=O)NCC(=O)N3CC(F)(F)C[C@H]3C#N)c2c1", "note": "[Example 3, N-(2-((S)-2-cyano-4,4-difluoropyrrolidin-1-yl)-2-oxoethyl)-6-(methyl(2-(4-(((1R,4r)-4-(2-((1R,4R)-4-(4-(((1S,4R)-4-(2-((2S,3S)-1-methyl-5-oxo-2-(pyridin-3-yl)pyrrolidine-3-carboxamido)ethoxy)cyclohexyl)oxy)butanamido)cyclohexane-1-carboxamido)ethoxy)cyclohexyl)oxy)butanamido)ethyl)amino)quinoline-4-carboxamide]", "ADCC Reporter Assay pEC50": "Inactive"}
{"smiles": "CN(CCNC(=O)[C@H]1CC[C@H](NC(=O)[C@H]2CC[C@H](NC(=O)CCCO[C@H]3CC[C@H](OCCNC(=O)[C@H]4CC(=O)N(C)[C@@H]4c4cccnc4)CC3)CC2)CC1)c1ccc2nccc(C(=O)NCC(=O)N3CC(F)(F)C[C@H]3C#N)c2c1", "note": "[Example 2, N-(2-((S)-2-cyano-4,4-difluoropyrrolidin-1-yl)-2-oxoethyl)-6-(methyl(2-((1R,4r)-((1R,4R)-4-(4-(((1S,4R)-4-(2-((2S,3S)-1-methyl-5-oxo-2-(pyridin-3-yl)pyrrolidine-3-carboxamido)ethoxy)cyclohexyl)oxy)butanamido)cyclohexane-1-carboxamido)cyclohexane-1-carboxamido)ethyl)amino)quinoline-4-carboxamide]", "ADCC Reporter Assay pEC50": "Inactive^1"}
{"target": "T1, FAP", "experiment": "Antibody dependent cellular cytotoxicity (ADCC) reporter assay", "type": "cell-based", "design": "key to ADCC Reporter Assay pEC50: Inactive = pEC50 < 5", "details": "WI-38 target cells; Jurkat FcγRIIIa NFAT-luciferase reporter cells; with anti-cotinine antibody (SEQ ID NO: 11/12); 12-18 hours; average if more than one run; read-out: ADCC Reporter Assay pEC50 (converted)", "description": "as §1, §2, §3", "units": {"EC50": "nM"}}
{"smiles": "CN(CCNC(=O)[C@H]1CC[C@H](NC(=O)CCCO[C@H]2CC[C@H](OCCNC(=O)[C@H]3CC[C@H](NC(=O)CCCO[C@H]4CC[C@H](OCCNC(=O)[C@H]5CC(=O)N(C)[C@@H]5c5cccnc5)CC4)CC3)CC2)CC1)c1ccc2nccc(C(=O)NCC(=O)N3CC(F)(F)C[C@@H]3C#N)c2c1", "note": "(racemic) [Example 1, N-(2-((S)-2-Cyano-4,4-difluoropyrrolidin-1-yl)-2-oxoethyl)-6-(methyl(2-((1R,4R)-4-(4-(((1R,4R)-4-(2-((1R,4R)-4-(4-(((1 S,4R)-4-(2-((2S,3S)-1-methyl-5-oxo-2-(pyridin-3-yl)pyrrolidine-3-carboxamido)ethoxy)cyclohexyl)oxy)butanamido)cyclohexane-1-carboxamido)ethoxy)cyclohexyl)oxy)butanamido)cyclohexane-1-carboxamido)ethyl)amino) quinoline-4-carboxamide]", "EC50": 3.98}
{"smiles": "CN(CCNC(=O)CCOCCOCCOCCOCCOCCOCCOCCOCCOCCOCCOCCOCCOCCOCCOCCOCCOCCOCCOCCOCCOCCOCCOCCOCCNC(=O)[C@H]1CC(=O)N(C)[C@@H]1c1cccnc1)c1ccc2nccc(C(=O)NCC(=O)N3CC(F)(F)C[C@H]3C#N)c2c1", "note": "[Example 7, N-(2-((S)-2-Cyano-4,4-difluoropyrrolidin-1-yl)-2-oxoethyl)-6-(methyl(1-((2S,3S)-1-methyl-5-oxo-2-(pyridin-3-yl)pyrrolidin-3-yl)-1,77-dioxo-5,8,11,14,17,20,23,26,29,32,35,38,41,44,47,50,53,56,59,62,65,68,71,74-tetracosaoxa-2,78-diazaoctacontan-80-yl)amino)quinoline-4-carboxamide]", "EC50": 5.01}
{"smiles": "CN1C(=O)C[C@H](C(=O)NCCOCCOCCOCCOCCOCCOCCOCCOCCOCCOCCOCCOCCOCCOCCOCCNC(=O)COc2ccc3c(C(=O)NCC(=O)N4CC(F)(F)C[C@H]4C#N)ccnc3c2)[C@H]1c1cccnc1", "note": "[Example 11, N-(2-((S)-2-cyano-4,4-difluoropyrrolidin-1-yl)-2-oxoethyl)-7-((1-((2S,3S)-1-methyl-5-oxo-2-(pyridin-3-yl)pyrrolidin-3-yl)-1,51-dioxo-5,8,11,14,17,20,23,26,29,32,35,38,41,44,47-pentadecaoxa-2,50-diazadopentacontan-52-yl)oxy)quinoline-4-carboxamide]", "EC50": "> 1000"}
{"smiles": "CN1C(=O)C[C@H](C(=O)NCCOCCOCCOCCOCCOCCOCCOCCOCCOCCOCCOCCOCCOCCOCCOCCOCCOCCOCCOCCOCCOCCOCCOCCNC(=O)COc2ccc3c(C(=O)NCC(=O)N4CCC[C@H]4C#N)ccnc3c2)[C@H]1c1cccnc1", "note": "[Example 12, N-(2-((S)-2-cyanopyrrolidin-1-yl)-2-oxoethyl)-7-((1-((2S,3S)-1-methyl-5-oxo-2-(pyridin-3-yl)pyrrolidin-3-yl)-1,75-dioxo-5,8,11,14,17,20,23,26,29,32,35,38,41,44,47,50,53,56,59,62,65,68,71-tricosaoxa-2,74-diazahexaheptacontan-76-yl)oxy)quinoline-4-carboxamide]", "EC50": 1}
{"smiles": "CN1C(=O)C[C@H](C(=O)NCCOCCOCCOCCOCCOCCOCCOCCOCCOCCOCCOCCOCCOCCOCCOCCOCCOCCOCCOCCOCCOCCOCCOCCNC(=O)COc2ccc3c(C(=O)NCC(=O)N4CC(F)(F)C[C@H]4C#N)ccnc3c2)[C@H]1c1cccnc1", "note": "[Example 13, N-(2-((S)-2-cyano-4,4-difluoropyrrolidin-1-yl)-2-oxoethyl)-7-((1-((2S,3S)-1-methyl-5-oxo-2-(pyridin-3-yl)pyrrolidin-3-yl)-1,75-dioxo-5,8,11,14,17,20,23,26,29,32,35,38,41,44,47,50,53,56,59,62,65,68,71-tricosaoxa-2,74-diazahexaheptacontan-76-yl)oxy)quinoline-4-carboxamide]", "EC50": 1}
{"smiles": "CN1C(=O)C[C@H](C(=O)NCCOCCOCCOCCOCCOCCOCCOCCOCCOCCOCCOCCOCCOCCOCCOCCOc2ccc3c(C(=O)NCC(=O)N4CCC[C@H]4C#N)ccnc3c2)[C@H]1c1cccnc1", "note": "[Example 9, N-(2-((S)-2-cyanopyrrolidin-1-yl)-2-oxoethyl)-7-((1-((2S,3S)-1-methyl-5-oxo-2-(pyridin-3-yl)pyrrolidin-3-yl)-1-oxo-5,8,11,14,17,20,23,26,29,32,35,38,41,44,47-pentadecaoxa-2-azanonatetracontan-49-yl)oxy)quinoline-4-carboxamide]", "EC50": "> 1000"}
